Assay results from PubChem BioAssay (NCI).
“And” between values parts separate entries of the source, which are not always exact repeats. Equal values may be shown once.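 Five compound concentrations were applied to cells in 96-well plates for 48 hours; endpoints were derived by simple linear interpolation of the resulting dose-response curve. At the GI50, growth is halved. Definition used: TGI = concentration required for complete inhibition of growth.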

Tests used:
Assay in all cases: NCI-60 cell line screen, 48 h
OVCAR-4 ovarian = system: OVCAR-4 ovarian
LOX IMVI melanoma = system: LOX IMVI melanoma
SF-295 CNS = system: SF-295 CNS
SNB-19 CNS = system: SNB-19 CNS
SK-MEL-5 melanoma = system: SK-MEL-5 melanoma
M14 melanoma = system: M14 melanoma
HCT-116 colon = system: HCT-116 colon
SK-MEL-2 melanoma = system: SK-MEL-2 melanoma
HT29 colon = system: HT29 colon
SN12C renal = system: SN12C renal

Structure (SMILES) | GI50 (OVCAR-4 ovarian) | TGI (OVCAR-4 ovarian) | GI50 (LOX IMVI melanoma) | TGI (LOX IMVI melanoma) | GI50 (SF-295 CNS) | TGI (SF-295 CNS) | GI50 (SNB-19 CNS) | TGI (SNB-19 CNS) | TGI (SK-MEL-5 melanoma) | GI50 (M14 melanoma) | TGI (M14 melanoma) | GI50 (HCT-116 colon) | TGI (HCT-116 colon) | GI50 (SK-MEL-2 melanoma) | TGI (SK-MEL-2 melanoma) | GI50 (HT29 colon) | TGI (HT29 colon) | GI50 (SN12C renal) | TGI (SN12C renal) | GI50 (SK-MEL-5 melanoma)
CC(=O)/C(C)=N/NC(=O)c1ccccc1O | > 100 µM | > 100 µM | > 100 µM | > 100 µM | > 100 µM | > 100 µM | > 100 µM | > 100 µM | > 100 µM | > 100 µM | > 100 µM | > 100 µM | > 100 µM | > 100 µM | > 100 µM | > 100 µM | > 100 µM | > 100 µM | > 100 µM | 
Cc1cc(S(=O)(=O)Nc2nnc(-c3ccccc3)c(-c3ccccc3)n2)c(SCC(N)=O)cc1Cl | 41.5 µM | > 100 µM | 34.6 µM | 85.1 µM | 28.5 µM | 75 µM | 35.3 µM | > 100 µM | > 100 µM | 56.5 µM | > 100 µM | 20.7 µM | 37.8 µM | 30.5 µM | 49.2 µM | > 100 µM | > 100 µM | 62.3 µM | > 100 µM | 57.8 µM
CC(=O)CSCc1ccccn1 |  | > 100 µM |  | > 100 µM |  | > 100 µM |  | > 100 µM | > 100 µM |  | > 100 µM |  | > 100 µM |  | 71.4 µM |  | > 100 µM |  | > 100 µM | 
CC1(C)C(=O)N(CCCCCCN2C(=O)C(C)(C)c3ccccc32)c2ccccc21 |  | > 100 µM |  | 43.5 µM |  | > 100 µM |  | > 100 µM | 33.5 µM |  | 87.4 µM |  | 42.4 µM |  | > 100 µM |  | 43.5 µM |  | > 100 µM | 
COc1cc2ncnc(Nc3ccc(C)c(O)c3)c2cc1OC | 9.91 µM | > 25 µM | 10.3 µM | > 25 µM | > 25 µM | > 25 µM | > 25 µM | > 25 µM | > 25 µM | 18.8 µM | > 25 µM | > 25 µM | > 25 µM | > 13.4 µM | > 20 µM | 14.7 µM | > 25 µM | 6.46 µM | > 25 µM | > 25 µM
COc1cccc2c1C(=O)c1c(O)c3c(c(O)c1C2=O)C[C@@](O)(C(C)=O)C[C@@H]3OC1OC(C)C(O)C(N)C1Br (stereo not given in full) | 0.43 µM | 0.83 µM and 2.71 µM |  | 0.153 µM and 0.164 µM | 0.0159 µM | 0.419 µM and 0.194 µM | 0.025 µM |  | 0.223 µM and 0.139 µM | 0.0535 µM | 0.257 µM and 0.669 µM |  | 0.147 µM and 0.188 µM | 0.198 µM | 0.715 µM and 0.704 µM |  | 0.573 µM | 0.018 µM | 0.307 µM and 1.12 µM | 0.0166 µM
NS(=O)(=O)c1ccc(N=Nc2c(O)[nH]c3ccc(-c4cnco4)cc23)cc1 | > 25 µM | > 25 µM | 22.8 µM | > 25 µM | > 25 µM | > 25 µM | > 25 µM | > 25 µM | > 25 µM | > 25 µM | > 25 µM | 6.97 µM | > 25 µM | > 25 µM | > 25 µM | > 25 µM | > 25 µM | > 25 µM | > 25 µM | > 25 µM
CCOC(=O)CC1(C(=O)OCC)c2[nH]c3ccccc3c2CCN1Cc1ccccc1 (stereo not given) |  | 55.2 µM |  | 32.9 µM |  | 32.8 µM |  | > 100 µM | 34.6 µM |  | 35.8 µM |  | 31.8 µM |  | 32.8 µM |  | 29.8 µM |  | 27.8 µM | 
C=C1C(=O)O[C@@H]2/C=C(\C)CC/C=C(/COC(C)=O)C[C@@H](OC(C)=O)[C@@H]12 |  | 45.1 µM |  | 13.1 µM |  | > 100 µM |  | > 95.9 µM | 25.7 µM |  | 27.1 µM |  | 14.6 µM |  | 31.8 µM |  | > 40.9 µM |  | 24.9 µM | 
